Source: PubChem BioAssay (NCI)
“And” between values parts separate entries of the source, which are not always exact repeats. Identical values can stand only once.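 Dose response: 5 concentrations. Exposure: 48 h. Format: 96-well plates. Endpoint: linear interpolation; highest concentration if not reached. Abbreviation: GI50, concentration required for 50% inhibition of growth. Definition used: TGI = concentration required for complete inhibition of growth.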

What was measured:
Test in all cases: DTP human tumour cell line panel, 48 h
HS 578T breast = test system: HS 578T breast
MDA-MB-435 = test system: MDA-MB-435
UACC-62 melanoma = test system: UACC-62 melanoma
NCI-H460 lung = test system: NCI-H460 lung
CCRF-CEM leukemia = test system: CCRF-CEM leukemia
MOLT-4 leukemia = test system: MOLT-4 leukemia
HCT-116 colon = test system: HCT-116 colon
HOP-92 NSCLC = test system: HOP-92 NSCLC
SW-620 colon = test system: SW-620 colon
TK-10 renal = test system: TK-10 renal

| SMILES | GI50 (HS 578T breast) | TGI (HS 578T breast) | GI50 (MDA-MB-435) | TGI (MDA-MB-435) | GI50 (UACC-62 melanoma) | TGI (UACC-62 melanoma) | GI50 (NCI-H460 lung) | TGI (NCI-H460 lung) | GI50 (CCRF-CEM leukemia) | TGI (CCRF-CEM leukemia) | GI50 (MOLT-4 leukemia) | TGI (MOLT-4 leukemia) | GI50 (HCT-116 colon) | TGI (HCT-116 colon) | GI50 (HOP-92 NSCLC) | TGI (HOP-92 NSCLC) | GI50 (SW-620 colon) | TGI (SW-620 colon) | GI50 (TK-10 renal) | TGI (TK-10 renal) |
| --- | --- | --- | --- | --- | --- | --- | --- | --- | --- | --- | --- | --- | --- | --- | --- | --- | --- | --- | --- | --- |
| O=C(Nc1cccc(-n2ccc3c(NC(=O)c4ccccc4)nccc32)c1)c1ccc(N2CCOCC2)c(C(F)(F)F)c1 | 0.272 µM | 98.6 µM | 0.0191 µM | 0.046 µM | 0.0414 µM | 22.5 µM | 0.037 µM | 26.9 µM | 0.0618 µM | > 100 µM | 0.128 µM | > 100 µM | 0.0371 µM | > 100 µM | 0.179 µM | 6.87 µM | 0.0412 µM | > 100 µM | 0.0782 µM | > 100 µM |
| CCOc1ccc2nc(-c3ccc(O)cc3)sc2c1 | – | – | – | > 100 µM | – | > 100 µM | – | > 100 µM | – | – | – | > 100 µM | – | > 100 µM | – | – | – | > 100 µM | – | > 100 µM |
| CC[C@]1(O)C[C@H]2CN(CCc3c([nH]c4ccccc34)[C@@](C(=O)OC)(c3cc4c(cc3OC)N(C=O)[C@H]3[C@@](O)(C(=O)OC)[C@H](OC(C)=O)[C@]5(CC)C=CCN6CC[C@]43[C@@H]65)C2)C1 | – | – | 0.0122 µM | – | – | 38.4 µM and 75.1 µM | < 0.001 µM | 0.775 µM and 2.35 µM | – | – | – | 7.59 µM and 48 µM and 23.3 µM | 0.0011 µM | – | – | 1.19 µM and 3.07 µM and 6.57 µM | – | 141 µM and 18 µM | – | – |
| O=C1OC(c2ccccc2)=N/C1=C\c1cccnc1 | – | > 100 µM | – | > 100 µM | – | > 100 µM | – | > 100 µM | – | > 100 µM | – | > 100 µM | – | – | – | > 100 µM | – | > 100 µM | – | > 100 µM |
| COC1=C2CC(C)CC(OC)C(O)C(C)/C=C(\C)C(OC(N)=O)C(OC)/C=C\C=C(/C)C(=O)NC(=C(C=NC(C)(C)C)C1=O)C2=O (stereo not given) | – | – | – | – | – | 17.6 µM | – | 18.4 µM | – | 22.2 µM | – | 12.1 µM | – | 16.2 µM | – | 1.35 µM | – | 20.9 µM | – | – |
| CC(=O)OC1C(C)OC(Oc2c(C)c3c4c(c2O)[C@@H](C)CC[C@@H]4[C@@H](C)C[C@H]3C=C(C)C)C(O)C1O (stereo not given in full) | 2.43 µM | 5.51 µM | 2.13 µM | 4.49 µM | – | – | 3.57 µM | > 100 µM | – | – | 2.23 µM | > 100 µM | – | – | 3.73 µM | 9.56 µM | – | – | 1.79 µM | 3.67 µM |
| CS(=O)(=O)c1ccc(/C=N/NC(N)=S)cc1 | – | > 100 µM | – | > 100 µM | – | > 100 µM | – | > 100 µM | – | – | – | > 100 µM | – | > 100 µM | – | > 100 µM | – | > 100 µM | – | > 100 µM |
| Nc1ncnc2c1ncn2C1OC(COP(=O)(O)O)C(O)C1O (stereo not given) | – | – | – | – | – | > 50 µM | – | > 50 µM | – | > 50 µM | – | > 50 µM | – | > 50 µM | – | > 46.6 µM | – | > 50 µM | – | – |
| Fc1ccc2[nH]cc(-c3nc(-c4c[nH]c5ncccc45)cs3)c2c1 | 3.15 µM | > 100 µM | 12.5 µM | > 100 µM | > 100 µM | > 100 µM | 2.11 µM | > 100 µM | – | – | – | – | – | – | – | – | > 100 µM | > 100 µM | > 100 µM | > 100 µM |
| C/C(CC/C(C)=N/O)=N\O | – | > 100 µM | – | > 100 µM | – | > 100 µM | – | > 100 µM | – | – | – | > 100 µM | – | > 100 µM | – | – | – | > 100 µM | – | > 100 µM |
| N/C(=N\N=C/c1ccccc1O)NO | – | – | – | – | – | 38.4 µM | – | > 43.7 µM | – | > 50.9 µM | – | > 70.2 µM | – | 47.8 µM | – | > 67.6 µM | – | > 100 µM | – | – |
| O=C(O)c1cc2ccccc2c(N=Nc2ccccc2)c1O | – | > 100 µM | – | 35.5 µM | – | 35.2 µM | – | – | – | > 100 µM | – | > 100 µM | – | > 100 µM | – | > 100 µM | – | > 100 µM | – | > 100 µM |
